Data set [1] is described as follows: physchem. The data set is classed as physicochemical. To be noted: 25 °C.
Data set [2] can be described thus: physchem. The data set is classed as physicochemical. To be noted: 60 °C, water. Here is the method: In Step S42, preheat 60 mL of furfuryl alcohol below 60° C. for approximately 15 minutes. In Step S43, mix the furfuryl alcohol and the saturated sucrose solution in a ratio of 1:1, and stir the mixed solution uniformly by a rotation speed of 500 rpm. In Step S44, maintain the mixed solution at 60° C., and crystal starts forming after approximately 4 to 5 hours. In Step S45, turn off the power of the constant-temperature water tank, and lower the temperature to room temperature naturally, and maintain this state for three days until the crystallization completes, and filter the mixed solution, and rinse the recrystallized sucrose by ethyl alcohol or acetone, and bake the crystal sucrose in a vacuum oven at 40° C. for 24 hours to obtain a Form II sucrose of a new conformational polymorph in accordance with the present invention.

In brackets after ≈: the same amount, converted by molar mass.

By solubility is commonly meant the concentration that dissolves in the medium under given conditions. A lower solubility goes with a poorly soluble substance.

Regarding `OC[C@H]1O[C@@](CO)(O[C@H]2O[C@H](CO)[C@@H](O)[C@H](O)[C@H]2O)[C@@H](O)[C@@H]1O` [Form I sucrose, sucrose], the solubility was 1850 to 1950 mg/mL (≈ 5400 to 5700 mM) in the data set “physchem [1]” and 2870 mg/mL (≈ 8390 mM) in the data set “physchem [2]”.

The record behind these values is patent US20100317845A1, “Sucrose of new confrontational polymorphs and manufacturing method thereof” (NATIONAL CENTRAL UNIVERSITY, priority 2009, published 2010).
